For 15 compounds, Ki results are on record in patent US20210395254A1, “NEW TETRAHYDROPYRIMIDODIAZEPIN AND TETRAHYDROPYRIDODIAZEPIN COMPOUNDS FOR TREATING PAIN AND PAIN RELATED CONDITIONS” (ESTEVE PHARMACEUTICALS, S.A., priority 2018, published 2021).

The target in assay [1] is human norepinephrine transporter (NET) (Homo sapiens, UniProt P23975). The assay can be described thus: Binding assay to human norepinephrine transporter (NET) ([3H]-Nisoxetin). The note with it: [3H]-Nisoxetin 5 nM, human NET enriched membranes. As to the method: Binding assay to human norepinephrine transporter (NET).
Human norepinephrine transporter (NET) enriched membranes ([…]) were incubated with 5 nM of radiolabeled [3H]-Nisoxetin in assay buffer containing 50mM Tris-HCl, 120mM NaCl, 5mM KCI, pH 7.4. NSB (non specific binding) was measured by adding […] of desipramine. The binding of the test compound was measured at either one concentration (% inhibition at 1 or 10 μM) or five different concentrations to determine affinity values (Ki). After 60 min incubation at 4° C., binding reaction was terminated by filtering through Multiscreen GF/C (Millipore) presoaked in 0.5% polyethyleneimine in Vacuum Manifold Station, followed by 3 washes with ice-cold filtration buffer containing 50mM Tris-HCl, 0.9% NaCl, pH 7.4. Filter plates were dried at 60° C. for 1 hour and 30 µl of scintillation cocktail were added to each well before radioactivity reading. Readings were performed in a Trilux 1450 Microbeta radioactive counter (Perkin Elmer).

In assay [2] the target is human α2δ-1 subunit of Cav2.2 calcium channel (Homo sapiens, UniProt P54289). The experiment in a line: Binding assay to human α2δ-1 subunit of Cav2.2 calcium channel ([3H]-Gabapentin). The note with it: [3H]-Gabapentin 15 nM, human α2δ-1 enriched membranes. The method, then:
Binding assay to human α2δ-1 subunit of Cav2.2 calcium channel. Human a26-1 enriched membranes (2.5 μg) were incubated with 15 nM of radiolabeled [3H]-Gabapentin in assay buffer containing Hepes-KOH 10 mM, pH 7.4. NSB (non specific binding) was measured by adding 10 μM pregabalin. The binding of the test compound was measured at either one concentration (% inhibition at 1 or 10 μM) or five different concentrations to determine affinity values (Ki). After 60 min incubation at 27° C., binding reaction was terminated by filtering through Multiscreen GF/C (Millipore) presoaked in 0.5% polyethyleneimine in Vacuum Manifold Station, followed by 3 washes with ice-cold filtration buffer containing 50 mM Tris-HCl, pH 7.4. Filter plates were dried at 60° C. for 1 hour and 30 μl of scintillation cocktail were added to each well before radioactivity reading. Readings were performed in a Trilux 1450 Microbeta radioactive counter (Perkin Elmer).

Chain of human norepinephrine transporter (NET) (P23975 whole entry): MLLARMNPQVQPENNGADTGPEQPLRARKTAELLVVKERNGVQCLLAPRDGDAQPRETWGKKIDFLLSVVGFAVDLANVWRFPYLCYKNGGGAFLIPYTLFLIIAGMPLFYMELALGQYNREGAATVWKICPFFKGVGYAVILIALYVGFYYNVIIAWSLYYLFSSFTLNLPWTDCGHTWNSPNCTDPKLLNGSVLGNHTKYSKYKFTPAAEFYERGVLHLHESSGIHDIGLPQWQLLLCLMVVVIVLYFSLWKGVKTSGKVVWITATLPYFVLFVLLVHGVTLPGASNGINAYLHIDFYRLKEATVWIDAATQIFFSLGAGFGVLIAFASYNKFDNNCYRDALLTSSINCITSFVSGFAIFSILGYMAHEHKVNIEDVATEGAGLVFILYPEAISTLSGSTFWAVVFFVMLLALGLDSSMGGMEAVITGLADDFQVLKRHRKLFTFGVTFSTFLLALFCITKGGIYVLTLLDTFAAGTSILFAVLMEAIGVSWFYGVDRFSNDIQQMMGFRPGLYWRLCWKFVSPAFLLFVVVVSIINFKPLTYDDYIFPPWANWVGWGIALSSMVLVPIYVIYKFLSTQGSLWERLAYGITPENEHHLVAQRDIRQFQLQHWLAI
Chain of human α2δ-1 subunit of Cav2.2 calcium channel (P54289 25-1103): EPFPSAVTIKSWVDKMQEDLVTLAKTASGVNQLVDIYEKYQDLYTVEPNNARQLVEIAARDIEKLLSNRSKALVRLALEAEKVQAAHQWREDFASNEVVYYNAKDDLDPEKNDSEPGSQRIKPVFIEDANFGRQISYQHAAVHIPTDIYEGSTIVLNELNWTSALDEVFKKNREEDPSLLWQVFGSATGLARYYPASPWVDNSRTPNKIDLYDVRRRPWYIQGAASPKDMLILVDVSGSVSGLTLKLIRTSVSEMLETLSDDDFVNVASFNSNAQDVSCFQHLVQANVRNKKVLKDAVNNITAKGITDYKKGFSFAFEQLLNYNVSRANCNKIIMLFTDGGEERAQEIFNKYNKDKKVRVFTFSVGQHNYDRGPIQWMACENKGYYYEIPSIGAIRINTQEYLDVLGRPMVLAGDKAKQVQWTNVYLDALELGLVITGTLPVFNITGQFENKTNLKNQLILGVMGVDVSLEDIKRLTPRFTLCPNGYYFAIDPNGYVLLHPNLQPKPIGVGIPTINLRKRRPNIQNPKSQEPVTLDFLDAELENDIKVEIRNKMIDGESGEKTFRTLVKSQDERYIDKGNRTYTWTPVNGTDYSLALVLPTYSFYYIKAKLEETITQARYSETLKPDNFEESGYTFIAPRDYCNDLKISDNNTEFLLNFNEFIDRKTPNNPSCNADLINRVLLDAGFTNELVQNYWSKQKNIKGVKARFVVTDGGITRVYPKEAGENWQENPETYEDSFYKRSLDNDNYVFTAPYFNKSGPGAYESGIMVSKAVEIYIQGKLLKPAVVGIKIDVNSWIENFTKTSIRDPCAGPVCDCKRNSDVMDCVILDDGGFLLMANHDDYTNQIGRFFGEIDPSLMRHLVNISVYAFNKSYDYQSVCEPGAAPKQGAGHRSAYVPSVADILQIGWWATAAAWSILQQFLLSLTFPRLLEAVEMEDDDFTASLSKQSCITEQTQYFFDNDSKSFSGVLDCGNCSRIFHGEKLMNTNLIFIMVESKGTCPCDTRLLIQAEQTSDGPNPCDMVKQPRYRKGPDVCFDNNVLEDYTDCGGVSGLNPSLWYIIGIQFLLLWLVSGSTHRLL

Usually Ki stands for the equilibrium dissociation constant of an inhibitor or competing ligand from its target. As to `CNCC[C@H](Oc1ccc(CN2CCN(C)c3nc(OC)ncc3C2=O)c(F)c1)c1ccccc1` [Example 9, (S)-6-(2-Fluoro-4-(3-(methylamino)-1-phenylpropoxy)benzyl)-2-methoxy-9-methyl-6,7,8,9-tetrahydro-5H-pyrimido[4,5-e][1,4]diazepin-5-one], the Ki in assay [1] is 100 to 500 nM; in assay [2], less than 100 nM.

Take `CNCC[C@H](Oc1ccc(CN2CCN(C)c3nc(N)ncc3C2=O)c(Cl)c1)c1ccccc1` [Example 4, (S)-2-Amino-6-(2-chloro-4-(3-(methylamino)-1-phenylpropoxy)benzyl)-9-methyl-6,7,8,9-tetrahydro-5H-pyrimido[4,5-e][1,4]diazepin-5-one]: the inhibition constant Ki in assay [1] and in assay [2] was less than 100 nM throughout.

`CNCC[C@H](Oc1cnc(CN2CCN(C)c3nc(N)ncc3C2=O)c(F)c1)c1cccc(F)c1` [Example 7, (S)-2-Amino-6-((3-fluoro-5-(1-(3-fluorophenyl)-3-(methylamino)propoxy)pyridin-2-yl)methyl)-9-methyl-6,7,8,9-tetrahydro-5H-pyrimido[4,5-e][1,4]diazepin-5-one]: the inhibitory constant (Ki) in assay [1] and in assay [2] was less than 100 nM each time.

Turning to `CNCC[C@H](Oc1ccc(CN2CCN(C)c3ncncc3C2=O)c(F)c1)c1ccccc1` [Example 10, (S)-6-(2-Fluoro-4-(3-(methylamino)-1-phenylpropoxy)benzyl)-9-methyl-6,7,8,9-tetrahydro-5H-pyrimido[4,5-e][1,4]diazepin-5-one], the inhibitory constant (Ki) in assay [1] and in assay [2] was less than 100 nM throughout.

With `CNCC[C@H](Oc1ccc(CN2CCN(C)c3nc(N)ncc3C2=O)c(F)c1)c1ccccc1` [Example 11, (S)-2-Amino-6-(2-fluoro-4-(3-(methylamino)-1-phenylpropoxy)benzyl)-9-methyl-6,7,8,9-tetrahydro-5H-pyrimido[4,5-e][1,4]diazepin-5-one], the inhibition constant (Ki) in assay [1] is 100 to 500 nM; in assay [2], less than 100 nM.

For the compound `CCNc1ncc2c(n1)N(C)CCN(Cc1ccc(O[C@@H](CCNC)c3cccc(F)c3)cc1F)C2=O` [Example 14, (S)-2-(Ethylamino)-6-(2-fluoro-4-(1-(3-fluorophenyl)-3-(methylamino)propoxy)benzyl)-9-methyl-6,7,8,9-tetrahydro-5H-pyrimido[4,5-e][1,4]diazepin-5-one], the Ki in assay [1] was 100 to 500 nM; in assay [2], less than 100 nM.

For the compound `CNCC[C@H](Oc1ccc(CN2CCN(C)c3ncncc3C2=O)c(C)c1)c1ccccc1` [Example 3, (S)-9-Methyl-6-(2-methyl-4-(3-(methylamino)-1-phenylpropoxy)benzyl)-6,7,8,9-tetrahydro-5H-pyrimido[4,5-e][1,4]diazepin-5-one], the inhibition constant Ki in assay [1] and in assay [2] was less than 100 nM throughout.

`CNCC[C@H](Oc1ccc(CN2CCN(C)c3nc(OC)ncc3C2=O)c(C)c1)c1ccccc1` [Example 2, (S)-2-Methoxy-9-methyl-6-(2-methyl-4-(3-(methylamino)-1-phenylpropoxy)benzyl)-6,7,8,9-tetrahydro-5H-pyrimido[4,5-e][1,4]diazepin-5-one]: the inhibition constant Ki in assay [1] and in assay [2] was less than 100 nM in each case.

Turning to `CCNc1ncc2c(n1)N(C)CCN(Cc1ncc(O[C@@H](CCNC)c3cccc(F)c3)cc1F)C2=O` [Example 6, (S)-2-(Ethylamino)-6-((3-fluoro-5-(1-(3-fluorophenyl)-3-(methylamino)propoxy)pyridin-2-yl)methyl)-9-methyl-6,7,8,9-tetrahydro-5H-pyrimido[4,5-e][1,4]diazepin-5-one], the Ki in assay [1] is 100 to 500 nM; in assay [2], less than 100 nM.

With `CNCC[C@H](Oc1ccc(CN2CCN(C)c3cc(OC)ncc3C2=O)c(F)c1)c1ccccc1` [Example 12, (S)-4-(2-Fluoro-4-(3-(methylamino)-1-phenylpropoxy)benzyl)-8-methoxy-1-methyl-1,2,3,4-tetrahydro-5H-pyrido[4,3-e][1,4]diazepin-5-one], the Ki in assay [1] was 100 to 500 nM; in assay [2], less than 100 nM.

With `CNCC[C@H](Oc1ccc(CN2CCN(C)c3ccncc3C2=O)c(C)c1)c1ccccc1` [Example 1, (S)-1-Methyl-4-(2-methyl-4-(3-(methylamino)-1-phenylpropoxy)benzyl) -1,2,3,4-tetrahydro-5H-pyrido[4,3-e][1,4]cliazepin-5-one], the Ki in assay [1] and in assay [2] was 100 to 500 nM throughout.

With `CCNc1ncc2c(n1)N(C)CCN(Cc1ccc(O[C@@H](CCNC)c3ccccc3)cc1Cl)C2=O` [Example 5, (S)-6-(2-Chloro-4-(3-(methylamino)-1-phenylpropoxy)benzyl)-2-(ethylamino)-9-methyl-6,7,8,9-tetrahydro-5H-pyrimido[4,5-e][1,4]diazepin-5-one], the inhibition constant (Ki) in assay [1] was 100 to 500 nM; in assay [2], less than 100 nM.

With `CNCC[C@H](Oc1cnc(CN2CCN(C)c3cc(OC)ncc3C2=O)c(F)c1)c1cccs1` [Example 15, (S)-4-((3-Fluoro-5-(3-(methylamino)-1-(thiophen-2-yl)propoxy)pyridin-2-yl)methyl)-8-methoxy-1-methyl-1,2,3,4-tetrahydro-5H-pyrido[4,3-e][1,4]diazepi n-5-one.], the Ki in assay [1] and in assay [2] was less than 100 nM throughout.

Consider `CCNc1ncc2c(n1)N(C)CCN(Cc1ccc(O[C@H](CCNC)c3cccc(F)c3)cc1F)C2=O` [Example 13, (R)-2-(Ethylamino)-6-(2-fluoro-4-(1-(3-fluorophenyl)-3-(methylamino)propoxy)benzyl)-9-methyl-6,7,8,9-tetrahydro-5H-pyrimido[4,5-e][1,4]diazepin-5-one], for which the Ki in assay [1] was 500 to 1000 nM; in assay [2], no less than 3000 nM.

For `CNCC[C@H](Oc1ccc(CN2CCN(C)c3ccncc3C2=O)c(F)c1)c1ccccc1` [Example 8, (S)-4-(2-Fluoro-4-(3-(methylamino)-1-phenylpropoxy)benzyI)-1-methyl-1,2,3,4-tetrahydro-5H-pyrido[4,3-e][1,4]diazepin-5-one], the inhibitory constant (Ki) in assay [1] is 100 to 500 nM; in assay [2] it was less than 100 nM.
